The target of the assay is T1, CXCR7 (Homo sapiens, UniProt P25106).
T1 construct: host or cells: CHO-K1 (PathHunter CXCR7 b-arrestin cell line, stably transfected)
T1 sequence (P25106 whole entry): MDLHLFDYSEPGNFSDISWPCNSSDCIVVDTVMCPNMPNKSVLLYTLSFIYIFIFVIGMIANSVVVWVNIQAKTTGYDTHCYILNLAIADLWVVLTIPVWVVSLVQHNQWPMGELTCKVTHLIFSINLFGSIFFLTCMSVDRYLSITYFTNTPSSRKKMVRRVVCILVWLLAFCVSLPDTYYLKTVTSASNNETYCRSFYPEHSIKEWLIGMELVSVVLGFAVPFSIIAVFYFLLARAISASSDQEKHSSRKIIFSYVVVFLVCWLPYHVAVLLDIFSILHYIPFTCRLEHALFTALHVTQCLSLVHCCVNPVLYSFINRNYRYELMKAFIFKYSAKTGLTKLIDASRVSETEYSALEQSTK
As to the kind of experiment: PathHunter CHO-K1 CXCR7 b-arrestin assay (agonistic activity). In kind it is cell-based. The conditions noted are these: PathHunter CHO-K1 CXCR7 b-arrestin cell line, 90 minutes at 37° C. The protocol:
The […] receptor and CXCR7 agonistic activities of the compounds of formula (I) are determined in accordance with the following experimental method.
The assay is using the PathHunter™ CHO-K1 CXCR7 b-arrestin cell line from DiscoverX. The system is based on the Enzyme Fragment Complementation Technology. Two complementing fragments of the b-galactosidase enzyme are expressed within stably transfected cells. The larger portion of b-gal, termed EA for Enzyme Acceptor, is fused to the C-terminus of b-arrestin 2. The smaller fragment, termed ProLink™ tag, is fused to CXCR7 at the C-terminus. Upon activation, b-arrestin is recruited which forces the interaction of ProLink and EA, allowing complementation of the two fragments of b-gal and the formation of a functional enzyme which is capable of hydrolysing the substrate and generating a chemiluminescent signal.
CHO-K1 CXCR7 b-arrestin cells are detached from culture dishes with a cell dissociation buffer (Invitrogen, #13151-014) and collected in growing medium (F12HAMS 90% (v/v)/FCS 10% (v/v), Penicilin/streptomycin 1% (v/v)). 5000 cells per well (in 20 μl) are seeded in a 384 well plate (white-walled, clear bottom; BD Falcon #353274). The plate is incubated at 37° C./5% CO2 for 24 hours. Medium is then replaced by […] (Invitrogen #31985) for 3 to 4 hours. Test compounds are dissolved at 10 mM in DMSO and serially diluted in DMSO to 200× of the final concentration for dose response curves. Compounds are then diluted 1:33.3 in HBSS1X. 5 μl/well of HBSS1X/20 mM HEPES/0.2% BSA are added to the assay plate followed by addition of 5 μl/well of diluted compounds. CXCL12 (Peprotech #300-28A) may be used as a reference agonist. The plate is incubated for 90 minutes at 37° C. 12 μl of detection reagent (Path Hunter Detection Kit, DiscoveRx, #93-0001) is transferred to the assay plate and to the plate is incubated for 1 hour at room temperature. Luminescent signal is read in a microplate reader (FLUOstar Optima, bmg). The calculated EC50 values may fluctuate depending on the daily cellular assay performance. Fluctuations of this kind are known to those skilled in the art.
In the case of `CC(C)(C)NC(=O)C1CCN(Cc2csc(NC(=O)c3ccc(F)cc3)c2)CC1` [Example 3.008, 1-[5-(4-Fluoro-benzoylamino)-thiophen-3-ylmethyl]-piperidine-4-carboxylic acid tert-butylamide], the response was half-maximal at 3 nM (EC50).
Turning to `CC(C)(C)NC(=O)C1CCN(Cc2cc(NC(=O)c3ccc(F)cc3)cs2)CC1` [Example 3.009, 1-[4-(4-Fluoro-benzoylamino)-thiophen-2-ylmethyl]-piperidine-4-carboxylic acid tert-butylamide], the EC50 is 4 nM.
The figure for `CC(C)(C)NC(=O)C1CCN(Cc2csc(NC(=O)Cc3ccccc3Cl)c2)CC1` [Example 3.010, 1-{5-[2-(2-Chloro-phenyl)-acetylamino]-thiophen-3-ylmethyl}-piperidine-4-carboxylic acid tert-butylamide] is 41 nM; for `CC(C)(C)NC(=O)C1CCN(Cc2cc(NC(=O)Cc3ccccc3Cl)cs2)CC1` [Example 3.011, 1-{4-[2-(2-Chloro-phenyl)-acetylamino]-thiophen-2-ylmethyl}-piperidine-4-carboxylic acid tert-butylamide] it is 28 nM; for `Cc1cncc(C(=O)Nc2cc(CN3CCC(C(=O)NC(C)(C)C)CC3)cs2)c1` [Example 3.012, N-[4-(4-tert-Butylcarbamoyl-piperidin-1-ylmethyl)-thiophen-2-yl]-5-methyl-nicotinamide] it is 44 nM.
Take `Cc1cncc(C(=O)Nc2csc(CN3CCC(C(=O)NC(C)(C)C)CC3)c2)c1` [Example 3.013, N-[5-(4-tert-Butylcarbamoyl-piperidin-1-ylmethyl)-thiophen-3-yl]-5-methyl-nicotinamide]: a half-maximal response (EC50) required 13 nM.
With `Cc1cncc(C(=O)Nc2cccc(CN3CCC(F)(C(=O)NC4CCCCC4)CC3)c2)c1` [Example 4.001, N-[3-(4-Cyclohexylcarbamoyl-4-fluoro-piperidin-1-ylmethyl)-phenyl]-5-methyl-nicotinamide], the EC50 amounted to 46 nM.
For `Cc1cncc(C(=O)Nc2cccc(CN3CCC(F)(C(=O)NC(C)(C)C)CC3)c2)c1` [Example 4.002, N-[3-(4-tert-Butylcarbamoyl-4-fluoro-piperidin-1-ylmethyl)-phenyl]-5-methyl-nicotinamide] the value was 16 nM; for `Cc1cncc(C(=O)Nc2cccc(CN3CCC(C)(C(=O)NC4CCCCC4)CC3)c2)c1` [Example 4.003, N-[3-(4-Cyclohexylcarbamoyl-4-methyl-piperidin-1-ylmethyl)-phenyl]-5-methyl-nicotinamide], 197 nM; for `Cc1cncc(C(=O)Nc2cccc(CN3CCC(C)(C(=O)NC(C)(C)C)CC3)c2)c1` [Example 4.004, N-[3-(4-tert-Butylcarbamoyl-4-methyl-piperidin-1-ylmethyl)-phenyl]-5-methyl-nicotinamide], 59 nM.
For `O=C(Nc1cccc(CN2CCC(C(=O)NC3CCCCC3)CC2)c1)c1ccc(F)c[n+]1[O-]` [Example 4.005, 5-Fluoro-1-oxy-pyridine-2-carboxylic acid [3-(4-cyclohexylcarbamoyl-piperidin-1-ylmethyl)-phenyl]-amide] the value was 4 nM; for `O=C(Nc1cccc(CN2CCC(C(=O)NC3CCCC3)CC2)c1)c1ccc(F)c[n+]1[O-]` [Example 4.006, 5-Fluoro-1-oxy-pyridine-2-carboxylic acid [3-(4-cyclopentylcarbamoyl-piperidin-1-ylmethyl)-phenyl]-amide], 1 nM; for `CC(C)(C)NC(=O)C1CCN(Cc2cccc(NC(=O)c3ccc(F)c[n+]3[O-])c2)CC1` [Example 4.007, 5-Fluoro-1-oxy-pyridine-2-carboxylic acid [3-(4-tert-butylcarbamoyl-piperidin-1-ylmethyl)-phenyl]-amide], 3 nM.
For `O=C(Nc1cccc(CN2CCC(F)(C(=O)NC3CCCCC3)CC2)c1)c1cccc(C(F)(F)F)n1` [Example 4.008, 6-Trifluoromethyl-pyridine-2-carboxylic acid [3-(4-cyclohexylcarbamoyl-4-fluoro-piperidin-1-ylmethyl)-phenyl]-amide], a half-maximal effect (EC50) was put at 71 nM.
The compound `CC(C)(C)NC(=O)C1(F)CCN(Cc2cccc(NC(=O)c3cccc(C(F)(F)F)n3)c2)CC1` [Example 4.009, 6-Trifluoromethyl-pyridine-2-carboxylic acid [3-(4-tert-butylcarbamoyl-4-fluoro-piperidin-1-ylmethyl)-phenyl]-amide] showed an EC50 of 20 nM.
The figure for `CC1(C(=O)NC2CCCCC2)CCN(Cc2cccc(NC(=O)c3cccc(C(F)(F)F)n3)c2)CC1` [Example 4.010, 6-Trifluoromethyl-pyridine-2-carboxylic acid [3-(4-cyclohexylcarbamoyl-4-methyl-piperidin-1-ylmethyl)-phenyl]-amide] is 57 nM; for `CC(C)(C)NC(=O)C1(C)CCN(Cc2cccc(NC(=O)c3cccc(C(F)(F)F)n3)c2)CC1` [Example 4.011, 6-Trifluoromethyl-pyridine-2-carboxylic acid [3-(4-tert-butylcarbamoyl-4-methyl-piperidin-1-ylmethyl)-phenyl]-amide] it is 13 nM; for `COc1cncc(C(=O)Nc2cccc(CN3CCC(C(=O)NC4CCCCC4)CC3)c2)c1` [Example 4.012, N-[3-(4-Cyclohexylcarbamoyl-piperidin-1-ylmethyl)-phenyl]-5-methoxy-nicotinamide] it is 10 nM.
For `COc1cncc(C(=O)Nc2cccc(CN3CCC(C(=O)NC4CCCC4)CC3)c2)c1` [Example 4.013, N-[3-(4-Cyclopentylcarbamoyl-piperidin-1-ylmethyl)-phenyl]-5-methoxy-nicotinamide] the value was 9 nM; for `COc1cncc(C(=O)Nc2cccc(CN3CCC(C(=O)N(C)CC(C)C)CC3)c2)c1` [Example 4.015, N-{3-[4-(Isobutyl-methyl-carbamoyl)-piperidin-1-ylmethyl]-phenyl}-5-methoxy-nicotinamide], 19 nM.
For `O=C(Nc1ccc(F)c(CN2CCC(C(=O)NC3CCCCC3)CC2)c1)c1cccc(C(F)(F)F)n1` [Example 4.016, 6-Trifluoromethyl-pyridine-2-carboxylic acid [3-(4-cyclohexylcarbamoyl-piperidin-1-ylmethyl)-4-fluoro-phenyl]-amide] the value was 3 nM.
The compound `CC(C)(C)NC(=O)C1CCN(Cc2cc(NC(=O)c3cccc(C(F)(F)F)n3)ccc2F)CC1` [Example 4.017, 6-Trifluoromethyl-pyridine-2-carboxylic acid [3-(4-tert-butylcarbamoyl-piperidin-1-ylmethyl)-4-fluoro-phenyl]-amide] came in with a concentration giving a half-maximal response (EC50) of 2 nM.
For `Cc1cncc(C(=O)Nc2ccc(F)c(CN3CCC(C(=O)NC4CCCCC4)CC3)c2)c1` [Example 4.018, N-[3-(4-Cyclohexylcarbamoyl-piperidin-1-ylmethyl)-4-fluoro-phenyl]-5-methyl-nicotinamide] the value was 11 nM; for `Cc1cncc(C(=O)Nc2ccc(F)c(CN3CCC(C(=O)NC(C)(C)C)CC3)c2)c1` [Example 4.019, N-[3-(4-tert-Butylcarbamoyl-piperidin-1-ylmethyl)-4-fluoro-phenyl]-5-methyl-nicotinamide], 8 nM; for `CC(C)(C)NC(=O)C1CCN(Cc2cc(NC(=O)c3cccc(C(F)(F)F)n3)ncn2)CC1` [Example 5.001, 6-Trifluoromethyl-pyridine-2-carboxylic acid [6-(4-tert-butylcarbamoyl-piperidin-1-ylmethyl)-pyrimidin-4-yl]-amide], 29 nM.
For “N-[3-(4-Cyclopropylcarbamoyl-piperidin-1-ylmethyl)-phenyl]-6-methyl-nicotinamide [Example 1.202]” the value was 145 nM; for “N-[3-(4-tert-Butylcarbamoyl-piperidin-1-ylmethyl)-phenyl]-5-methoxy-nicotinamide [Example 4.014]”, 8 nM.
For “rac-2-Methyl-pyrimidine-4-carboxylic acid {3-[1-(4-cyclohexylcarbamoyl-piperidin-1-yl)-ethyl]-phenyl}-amide [Example 1.197]”, the EC50 is 15 nM.

The values are drawn from patent US20130345199A1, “1-[M-CARBOXAMIDO(HETERO)ARYL-METHYL]-PIPERIDINE-4-CARBOXAMIDE DERIVATIVES” (Actelion Pharmaceuticals Ltd., priority 2012, published 2013).
